Test results from patent US20240398814A1, “KRAS INHIBITOR AND HDAC INHIBITOR COMBINATION FOR THE TREATMENT OF CANCER” (Northwestern University, priority 2023, published 2024).

Legend:
[1] = system: human KRAS, LKB1 mutant lung cancer cells; test: FGFR1 resistance mechanism in human KRAS, LKB1 mutant lung cancer cells; assay type: cell-based; settings: 9 days of trametinib treatment, entinostat treatment days 3-9 (6 days total)
KL NSCLC GEMM = test: In vivo entinostat and trametinib treatment, 42 days, tumor burden; set-up: species or system mouse; settings: endpoint after 42 days; entinostat 10 mg/kg, trametinib 1 mg/kg, oral gavage
Method: Bioluminescent imaging was performed biweekly using an IVIS Spectrum (Caliper Life Sciences) using Living Image software (Perkin Elmer). Mice were injected intraperitoneally with 150 mg/kg D-luciferin (Caliper Life Sciences), anesthetized with isoflurane and imaged both ventrally and dorsally 10 minutes post luciferin injection. The total lung photon flux for each animal is calculated by the combination of ventral and dorsal photon flux calculated within a region of interest (ROI) encompassing the thorax.
Mice were intratracheally intubated with Lentivirus expressing Cre recombinase to initiate tumorigenesis and imaged […] starting 4 weeks post-Cre. Treatment was initiated at day 34 post-Cre (FIG. 5). In vivo treatment doses were selected based on publications (76-79). […]
Total lung tumor burden was quantitated from H&E sections using Inform v2.1 image analysis software (Cambridge Research and Instrumentation) in a non-biased manner. […] The quantitation data from this analysis was then used to calculate the percentage of tumor area as normalized to total lung area (tumor area+normal lung area).
Quantitation of each individual tumor was measured from H&E sections using morphometric analysis in Panoramic viewer software (Perkin Elmer), which calculates the size of each identified tumor by area in squared microns. […]

KL lung tumors = test: 6-week in vivo entinostat and trametinib treatment, flow cytometry immune profiling; set-up: species or system mouse; settings: 6 weeks; percentage of total CD45+ cells
Method: The 6-week duration study was carried out according to the same experimental design except for the following: To ensure an extended treatment duration, treatment was initiated after tumor burden was detected by BLI in >30% of mice in the study. Entinostat was administered at a dose of 10 mg/kg to assess systemic drug impact at a dose corresponding to potent tumor growth control. Because mice were gavaged twice daily for an extended duration, an additional drug holiday was built into the dosing schedule starting after 3 weeks of treatment; mice were administered drug using the following schedule: 4 days on, 1 day off, 1 day on, and 1 day off (imaging day).
Tumor digestion and cell isolation: Lungs were removed from the chest, washed with PBS, dried on paper towels and then tumor nodules were excised from adjacent tissue and both adjacent tissue and nodules were weighed. Nodules or adjacent tissue was minced into small pieces and suspended in digestion media consisting of RPMI 1640 with 2% FBS, 0.5 ug/mL of DNase I and 1 unit/mL collagenase Type I (Sigma-Aldrich Cat #0000137295) and placed in an incubator at 37° C. for 45 minutes, shaking once during digestion. […]

[2] = system: human LKB1 mutant lung cancer cells; test: FGFR1 resistance mechanism in human LKB1 mutant lung cancer cells; assay type: cell-based; settings: 9 days of trametinib treatment, entinostat treatment days 3-9 (6 days total)

Nc1ccccc1NC(=O)c1ccc(CNC(=O)OCc2cccnc2)cc1 [entinostat]
impact of Trametinib on the FGFR1 resistance mechanism [1]: reverses the impact of Trametinib on the FGFR1 resistance mechanism
tumor burden quantitated from H&E-stained sections (tumor area as percentage of total lung area) (KL NSCLC GEMM): neither entinostat nor trametinib alone impacted tumor burden
gMDSCs in lung tumors (KL lung tumors): No changes were observed
impact of Trametinib on the FGFR1 resistance mechanism [2]: reverses the impact of Trametinib on the FGFR1 resistance mechanism
